Results reported in article PMC5466188 (Biotechnology Reports, 2014).

target: Acetylcholinesterase (AChE, from electric eel) (Electrophorus electricus, UniProt O42275); assay: In vitro AChE inhibition assay; assay type: biochemical
Sequence (O42275 24-633): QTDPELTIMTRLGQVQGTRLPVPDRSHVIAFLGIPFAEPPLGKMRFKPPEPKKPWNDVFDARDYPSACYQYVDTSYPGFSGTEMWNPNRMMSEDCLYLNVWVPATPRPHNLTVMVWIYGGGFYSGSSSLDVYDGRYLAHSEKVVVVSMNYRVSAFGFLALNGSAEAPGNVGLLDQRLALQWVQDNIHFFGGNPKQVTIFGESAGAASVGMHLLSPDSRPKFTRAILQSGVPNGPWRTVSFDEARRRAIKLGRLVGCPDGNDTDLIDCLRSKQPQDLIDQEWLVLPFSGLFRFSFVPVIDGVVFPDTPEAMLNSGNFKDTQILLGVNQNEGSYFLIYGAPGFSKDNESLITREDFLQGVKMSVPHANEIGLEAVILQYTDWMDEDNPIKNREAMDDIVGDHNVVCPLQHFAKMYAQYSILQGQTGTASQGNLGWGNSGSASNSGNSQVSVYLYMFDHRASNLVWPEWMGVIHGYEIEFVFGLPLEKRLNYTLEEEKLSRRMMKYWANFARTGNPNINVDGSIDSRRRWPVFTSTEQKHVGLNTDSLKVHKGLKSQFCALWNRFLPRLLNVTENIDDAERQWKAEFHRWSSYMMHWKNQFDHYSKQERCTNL

SMILES | IC50 [nM]
CC1=C(C(=O)NC(=O)c2cnccn2)C(c2ccc(Cl)cc2)NC(=S)N1 (stereo not drawn) [Compound 4j, 4-(4-Chlorophenyl)-6-methyl-N-(pyrazin-2-ylcarbonyl)-2-thioxo-1,2,3,4-tetrahydropyrimidine-5-carboxamide] | 880 ± 10
CC1=C(C(=O)NC(=O)c2cnccn2)C(c2ccc(F)cc2)NC(=S)N1 (stereo not drawn) [Compound 4h, 4-(4-Fluorophenyl)-6-methyl-N-(pyrazin-2-ylcarbonyl)-2-thioxo-1,2,3,4-tetrahydropyrimidine-5-carboxamide] | 750 ± 10
CC1=C(C(=O)NC(=O)c2cnccn2)C(c2ccc(F)cc2)NC(=O)N1 (stereo not drawn) [Compound 4g, 4-(4-Fluorophenyl)-6-methyl-2-oxo-N-(pyrazin-2-ylcarbonyl)-1,2,3,4-tetrahydropyrimidine-5-carboxamide] | 860 ± 10
CC1=C(C(=O)NC(=O)c2cnccn2)C(c2ccncc2)NC(=S)N1 (stereo not drawn) [Compound 4l, 6-Methyl-N-(pyrazin-2-ylcarbonyl) -4-(pyridin-4-yl) -2-thioxo-1,2,3,4-tetrahydropyrimidine-5-carboxamide] | 110 ± 10
CC1=C(C(=O)NC(=O)c2cnccn2)C(c2cccc([N+](=O)[O-])c2)NC(=O)N1 (stereo not drawn) [Compound 4c, 6-Methyl-4-(3-nitrophenyl)-2-oxo-N-(pyrazin-2-ylcarbonyl)-1,2,3,4-tetrahydropyrimidine-5-carboxamide] | 2540 ± 10
CC1=C(C(=O)NC(=O)c2cnccn2)C(c2ccccc2)NC(=S)N1 (stereo not drawn) [Compound 4b, 6-Methyl-4-phenyl-N-(pyrazin-2-ylcarbonyl)-2-thioxo-1,2,3,4-tetrahydropyrimidine-5-carboxamide] | 5260 ± 10
CC1=C(C(=O)NC(=O)c2cnccn2)C(c2cccc(Cl)c2)NC(=O)N1 (stereo not drawn) [Compound 4e, 4-(3-Chlorophenyl)-6-methyl-2-oxo-N-(pyrazin-2-ylcarbonyl)-1,2,3,4-tetrahydropyrimidine-5-carboxamide] | 1210 ± 10
CC1=C(C(=O)NC(=O)c2cnccn2)C(c2ccncc2)NC(=O)N1 (stereo not drawn) [Compound 4k, 6-Methyl-2-oxo-N-(pyrazin-2-ylcarbonyl)-4-(pyridin-4-yl)-1,2,3,4-tetrahydropyrimidine-5-carboxamide] | 190 ± 10
CC1=C(C(=O)NC(=O)c2cnccn2)C(c2cccc([N+](=O)[O-])c2)NC(=S)N1 (stereo not drawn) [Compound 4d, 6-Methyl-4-(3-nitrophenyl)-N-(pyrazin-2-ylcarbonyl)-2-thioxo-1,2,3,4-tetrahydropyrimidine-5-carboxamide] | 1820 ± 10
CC1=C(C(=O)NC(=O)c2cnccn2)C(c2cccc(Cl)c2)NC(=S)N1 (stereo not drawn) [Compound 4f, 4-(3-Chlorophenyl)-6-methyl-N-(pyrazin-2-ylcarbonyl)-2-thioxo-1,2,3,4-tetrahydropyrimidine-5-carboxamide] | 1050 ± 10
CC1=C(C(=O)NC(=O)c2cnccn2)C(c2ccc(Cl)cc2)NC(=O)N1 (stereo not drawn) [Compound 4i, 4-(4-Chlorophenyl)-6-methyl-2-oxo-N-(pyrazin-2-ylcarbonyl)-1,2,3,4-tetrahydropyrimidine-5-carboxamide] | 940 ± 10
CC1=C(C(=O)NC(=O)c2cnccn2)C(c2ccccc2)NC(=O)N1 (stereo not drawn) [Compound 4a, 6-Methyl-2-oxo-4-phenyl-N-(pyrazin-2-ylcarbonyl)-1,2,3,4-tetrahydropyrimidine-5-carboxamide] | 5350 ± 10
